Test results reported in ChEMBL document CHEMBL1833849, “Novel 4-azasteroidal N-glycoside analogues bearing sugar-like D ring: synthesis and anticancer activities” (2011).

How the values were obtained:
Format in all cases: functional
SK-N-SH = assay: Cytotoxicity against human SK-N-SH cells assessed as growth inhibition after 3 days by MTT assay; settings: 72 h
HeLa = assay: Cytotoxicity against human HeLa cells assessed as growth inhibition after 3 days by MTT assay; settings: 72 h
MCF7 = assay: Cytotoxicity against human MCF7 cells assessed as growth inhibition after 3 days by MTT assay; settings: MCF7, 72 h
PC-3 = assay: Cytotoxicity against human PC3 cells assessed as growth inhibition after 3 days by MTT assay; settings: PC-3, 72 h

Compound: C[C@]12CCC(=O)N[C@@H]1CC[C@@H]1[C@@H]2CC[C@]2(C)O[C@H](n3cnc4c(Cl)ncnc43)CC[C@@H]12
- GI50 (SK-N-SH): 103 µM
- GI50 (HeLa): 17.7 µM
- GI50 (MCF7): 20.9 µM
- GI50 (PC-3): 3.25 µM

Compound: C[C@]12CCC(=O)N[C@@H]1CC[C@@H]1[C@@H]2CC[C@]2(C)O[C@H](n3cnc4c(Cl)nc(Cl)nc43)CC[C@@H]12
- GI50 (SK-N-SH): 34.2 µM
- GI50 (HeLa): 7.57 µM
- GI50 (MCF7): 34.2 µM
- GI50 (PC-3): 11.2 µM

Compound: C[C@]12CCC(=O)N[C@@H]1CC[C@@H]1[C@@H]2CC[C@]2(C)O[C@H](n3cnc4c(Cl)nc(F)nc43)CC[C@@H]12
- GI50 (SK-N-SH): 10.7 µM
- GI50 (HeLa): 13.3 µM
- GI50 (MCF7): 16.7 µM
- GI50 (PC-3): 3.76 µM

Compound: C[C@]12CCC(=O)N[C@@H]1CC[C@@H]1[C@@H]2CC[C@]2(C)O[C@H](n3cnc4c(NCc5ccccc5)ncnc43)CC[C@@H]12
- GI50 (SK-N-SH): 133 µM
- GI50 (HeLa): 129 µM
- GI50 (MCF7): 136 µM
- GI50 (PC-3): 20.6 µM

Compound: CC(=O)O[C@H]1C(=O)[C@@]2(C)[C@H]([C@H](OC(=O)c3ccccc3)[C@]3(O)C[C@H](OC(=O)[C@H](O)[C@@H](NC(=O)c4ccccc4)c4ccccc4)C(C)=C1C3(C)C)[C@]1(OC(C)=O)CO[C@@H]1C[C@@H]2O [PACLITAXEL]
- GI50 (SK-N-SH): 2.19 µM
- GI50 (HeLa): 2.82 µM
- GI50 (MCF7): 1.07 µM
- GI50 (PC-3): 1.46 µM
